This test has as its system PC12/HttN90Q103 cells. The experiment in a line: CellTiter-Blue assay, rescue of HttN90Q103-induced cell death. The conditions noted are these: CellTiter-Blue, single agent; for Max Effect (% rescue) / Emax: 250 nM tebufenozide induction; for EC50: sigmoidal fit of 12-step dose response, read-out: EC50; for Emax: read-out: Max Effect (% rescue). Type of test: cell-based, rat. From the text: In this stable PC12 line (PC12/HttN90Q103), transcription of the Htt transgene is driven by an ecdysone-regulated promoter such that the expression of HttN90Q103 can be turned on or off by the addition or removal of the non-steroidal ecdysone analog tebufenozide (teb).
Using the engineered PC12/HttN90Q103 cell line together with Perkin Elmer's ATPlite™ assay kit or CellTiter-Blue™ assay, a high throughput assay to screen small molecules for their ability to prevent mutant Htt exon 1-induced cell death was developed and optimized.
The following formulas were used to calculate mutant Htt-induced cytotoxicity and test compound rescue: % killing=[(un-induced−induced-DMSO treated)/un-induced]×100 % rescue=[(drug treated−induced-DMSO treated)/(un-induced−induced-DMSO treated)]×100
For single-agent ranking, the assay was performed in 384-well plates to obtain duplicate dose response curves in 12-step dilutions with a dosing ratio f=2 over 3 orders of magnitude.
The uncertainty of each fitted parameter was estimated from the range over which the change in reduced chi-squared was less than one, or less than minimum reduced chi-squared if that minimum exceeded one, to allow for underestimated σI errors.
Day 1—Add Compounds 4 hours post-induction • 1) Remove compound plates from dessicator. • 2) Using the PlateMate, prepare dilution plate with 100 μL per well of the complete cell medium at room temperature in clear untreated 384-well plates. • 3) Using the MiniTrak, make compound dilution plates: 1 μL from each well of stock plates into 100 μL of media in the dilution plate for a 1:100 dilution (10× stock in media). • 4) Using the MiniTrak, add 4.5 μL of the diluted stock to each well of cells in assay plates. • 5) Make positive control solution: dilute 20 mM stock of BOC-D-FMK in media for a 10× stock. • 6) Manually add 4.5 μL positive control to C1-N1. • 7) Incubate plates at 37° C. for three days. • (for ranking combinations, steps 5 and 6 are omitted as there is positive control on the compound plates)
Day 4—CellTiter-Blue™ assay • 1) Make solution of 5% CellTiter-Blue™ in Q103 media. • 2) Using the Multidrop, add 40 μL of 5% CellTiter-Blue™ solution to each well of the assay plates. • 3) Incubate plates with CellTiter-Blue™ at 37° C.
In general terms: Resazurin is reduced to fluorescent resorufin, in cell work by metabolically active cells.

Here are results for eight compounds from patent publication US20080044390A1, “Methods and compositions for the treatment of neurodegenerative disorders” (priority 2006, published 2008).

Structures can show the parent of a compound that is named as a salt. Where two headings read alike, the source gives them in different places.

A word on the EC50: it is the midpoint of the concentration-response curve. With `C=C[C@@]1(C)CC(=O)[C@]2(O)[C@@]3(C)[C@@H](O)CCC(C)(C)[C@@H]3[C@H](OC(=O)CCN(C)C)[C@H](OC(C)=O)[C@@]2(C)O1` [NKH-477, 6-(3-dimethylaminopropionyl)forskolin], the “Max Effect (% rescue)” value was found to be 69% and the EC50 amounted to 7.2 µM.

Take `CO[C@@H]1[C@@H](OC(N)=O)[C@@H](O)[C@H](Oc2ccc3c(O)c(NC(=O)c4ccc(O)c(CC=C(C)C)c4)c(=O)oc3c2C)OC1(C)C` [Novobiocin]: for the setting “Rattus norvegicus, PC-12”, the Emax came out at 27% and the EC50 is 3 µM.

As for `Cl.NCCc1ccc(S(=O)(=O)F)cc1` [Pefabloc SC], the “Max Effect (% rescue)” value worked out at 34% and the concentration for a half-maximal effect (EC50) was determined as 6.8 µM.

With `Cc1ccc(C(=O)Cn2c3c(sc2=N)CCCC3)cc1` [Pifithrin α, 2-(2-imino-4,5,6,7-tetrahydrobenzothiazol-3-yl)-1-p-tolylethanone hydrobromide], where the note is “Rattus norvegicus, PC-12”, the Emax turned out to be 15% and the EC50 is 6 µM.

With `CC(=O)[C@H]1CC[C@H]2[C@@H]3CC=C4C[C@@H](O)CC[C@]4(C)[C@H]3CC[C@]12C` [Pregnenolone, 5-pregnen-3β-ol-20-one], the “Max Effect (% rescue)” value amounted to 22% and the half-maximal effective concentration (EC50) was found to be 11.9 µM.

`C=CC[C@@H]1/C=C(\C)C[C@H](C)C[C@H](OC)[C@H]2O[C@@](O)(C(=O)C(=O)N3CCCC[C@H]3C(=O)O[C@H](/C(C)=C/[C@@H]3CC[C@@H](O)[C@H](OC)C3)[C@H](C)[C@@H](O)CC1=O)[C@H](C)C[C@@H]2OC` [Tacrolimus (FK-506), Tacrolimus]: where the note is “Rattus norvegicus, PC-12”, the Emax is 36% and the EC50 turned out to be 0.1 µM.

As to `C[C@]12C=CC(=O)C=C1CC[C@@H]1[C@@H]2CC[C@]2(C)OC(=O)CC[C@@H]12` [Testolactone], under “Rattus norvegicus, PC-12”, the Emax stood at 52% and the EC50 came to 7.6 µM.

As for `Cc1c(C)c2c(c(C)c1O)CCC(C)(COc1ccc(CC3SC(=O)NC3=O)cc1)O2` (stereo not shown) [Troglitazone], under “Rattus norvegicus, PC-12”, the Emax amounted to 49% and the EC50 was found to be 17.8 µM.
